Results: PubChem BioAssay (NCI)
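A five-concentration, 48-hour dose response in 96-well plates underlies each endpoint, interpolated linearly between surrounding concentrations. At the GI50, growth is halved. Definition used: TGI = concentration required for complete inhibition of growth.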

Assays:
Assay in all cases: NCI tumour cell line growth inhibition, 48 h
ACHN renal = tested on: ACHN renal
786-0 renal = tested on: 786-0 renal
SK-MEL-2 melanoma = tested on: SK-MEL-2 melanoma
HCC-2998 colon = tested on: HCC-2998 colon
OVCAR-4 ovarian = tested on: OVCAR-4 ovarian
HCT-116 colon = tested on: HCT-116 colon
OVCAR-8 ovarian = tested on: OVCAR-8 ovarian
SNB-19 CNS = tested on: SNB-19 CNS
NCI-H460 lung = tested on: NCI-H460 lung
HOP-62 NSCLC = tested on: HOP-62 NSCLC
IGROV1 ovarian = tested on: IGROV1 ovarian
COLO 205 colon = tested on: COLO 205 colon
HOP-92 NSCLC = tested on: HOP-92 NSCLC
SN12C renal = tested on: SN12C renal
HL-60(TB) leukemia = tested on: HL-60(TB) leukemia
A549 NSCLC = tested on: A549 NSCLC
HCT-15 colon = tested on: HCT-15 colon
U251 CNS = tested on: U251 CNS
SW-620 colon = tested on: SW-620 colon
DU-145 prostate = tested on: DU-145 prostate
TK-10 renal = tested on: TK-10 renal
SR leukemia = tested on: SR leukemia
UO-31 renal = tested on: UO-31 renal
MDA-MB-435 = tested on: MDA-MB-435
HS 578T breast = tested on: HS 578T breast
KM12 colon = tested on: KM12 colon
MOLT-4 leukemia = tested on: MOLT-4 leukemia
NCI-H226 lung = tested on: NCI-H226 lung
CAKI-1 renal = tested on: CAKI-1 renal
MDA-MB-468 breast = tested on: MDA-MB-468 breast
OVCAR-3 ovarian = tested on: OVCAR-3 ovarian
SF-539 CNS = tested on: SF-539 CNS
MDA-MB-231 breast = tested on: MDA-MB-231 breast
T-47D breast = tested on: T-47D breast
SK-OV-3 ovarian = tested on: SK-OV-3 ovarian
OVCAR-5 ovarian = tested on: OVCAR-5 ovarian
UACC-257 melanoma = tested on: UACC-257 melanoma
MALME-3M melanoma = tested on: MALME-3M melanoma
BT-549 breast = tested on: BT-549 breast
UACC-62 melanoma = tested on: UACC-62 melanoma
SF-268 CNS = tested on: SF-268 CNS
PC-3 prostate = tested on: PC-3 prostate
A498 renal = tested on: A498 renal
CCRF-CEM leukemia = tested on: CCRF-CEM leukemia
K-562 leukemia = tested on: K-562 leukemia
NCI-H522 lung = tested on: NCI-H522 lung
RPMI-8226 leukemia = tested on: RPMI-8226 leukemia
SF-295 CNS = tested on: SF-295 CNS
SNB-75 CNS = tested on: SNB-75 CNS
MCF7 breast = tested on: MCF7 breast
HT29 colon = tested on: HT29 colon
RXF 393 renal = tested on: RXF 393 renal
EKVX NSCLC = tested on: EKVX NSCLC
SK-MEL-28 melanoma = tested on: SK-MEL-28 melanoma
NCI-H23 lung = tested on: NCI-H23 lung
NCI/ADR-RES ovarian = tested on: NCI/ADR-RES ovarian
LOX IMVI melanoma = tested on: LOX IMVI melanoma
SK-MEL-5 melanoma = tested on: SK-MEL-5 melanoma
M14 melanoma = tested on: M14 melanoma

COc1cccc(-c2nn(-c3ccccc3)cc2-c2ccnc(NCCCNC(=O)Nc3ccc(F)cc3)c2)c1
GI50 (ACHN renal): 10.6 µM
TGI (ACHN renal): > 37 µM
GI50 (786-0 renal): 9.34 µM
TGI (786-0 renal): > 37 µM
GI50 (SK-MEL-2 melanoma): 6.3 µM
TGI (SK-MEL-2 melanoma): 12.6 µM
GI50 (HCC-2998 colon): 7.38 µM
TGI (HCC-2998 colon): 20 µM
GI50 (OVCAR-4 ovarian): 10.5 µM
TGI (OVCAR-4 ovarian): > 37 µM
GI50 (HCT-116 colon): 5.7 µM
TGI (HCT-116 colon): 17 µM
GI50 (OVCAR-8 ovarian): 10.6 µM
TGI (OVCAR-8 ovarian): > 37 µM
GI50 (SNB-19 CNS): 12.1 µM
TGI (SNB-19 CNS): > 37 µM
GI50 (NCI-H460 lung): 6.54 µM
TGI (NCI-H460 lung): 17.1 µM
GI50 (HOP-62 NSCLC): 14.7 µM
TGI (HOP-62 NSCLC): > 37 µM
GI50 (IGROV1 ovarian): 9.34 µM
TGI (IGROV1 ovarian): > 37 µM
GI50 (COLO 205 colon): 8.17 µM
TGI (COLO 205 colon): 29.3 µM
GI50 (HOP-92 NSCLC): 6.25 µM
TGI (HOP-92 NSCLC): 31.1 µM
GI50 (SN12C renal): 9.83 µM
TGI (SN12C renal): > 37 µM
GI50 (HL-60(TB) leukemia): 3.77 µM
TGI (HL-60(TB) leukemia): 13.7 µM
GI50 (A549 NSCLC): 9.95 µM
TGI (A549 NSCLC): > 37 µM
GI50 (HCT-15 colon): 7.64 µM
TGI (HCT-15 colon): > 37 µM
GI50 (U251 CNS): 9.84 µM
TGI (U251 CNS): > 37 µM
GI50 (SW-620 colon): 8.02 µM
TGI (SW-620 colon): > 37 µM
GI50 (DU-145 prostate): 14 µM
TGI (DU-145 prostate): > 37 µM
GI50 (TK-10 renal): 21.2 µM
TGI (TK-10 renal): > 37 µM
GI50 (SR leukemia): 7.7 µM
TGI (SR leukemia): > 37 µM
GI50 (UO-31 renal): 5.1 µM
TGI (UO-31 renal): > 37 µM
GI50 (MDA-MB-435): 5.61 µM
TGI (MDA-MB-435): 12.8 µM
GI50 (HS 578T breast): 6.24 µM
TGI (HS 578T breast): 17.9 µM
GI50 (KM12 colon): 10.5 µM
TGI (KM12 colon): > 37 µM
GI50 (MOLT-4 leukemia): 3.94 µM
TGI (MOLT-4 leukemia): 19 µM
GI50 (NCI-H226 lung): 10.8 µM
TGI (NCI-H226 lung): > 37 µM
GI50 (CAKI-1 renal): 8.63 µM
TGI (CAKI-1 renal): > 37 µM
GI50 (MDA-MB-468 breast): 4.83 µM
TGI (MDA-MB-468 breast): 13 µM
GI50 (OVCAR-3 ovarian): 6.18 µM
TGI (OVCAR-3 ovarian): > 37 µM
GI50 (SF-539 CNS): 6.34 µM
TGI (SF-539 CNS): 13.4 µM
GI50 (MDA-MB-231 breast): 7.84 µM
TGI (MDA-MB-231 breast): 23 µM
GI50 (T-47D breast): 7.95 µM
TGI (T-47D breast): > 37 µM
GI50 (SK-OV-3 ovarian): 10.8 µM
TGI (SK-OV-3 ovarian): > 37 µM
GI50 (OVCAR-5 ovarian): 11.2 µM
TGI (OVCAR-5 ovarian): > 37 µM
GI50 (UACC-257 melanoma): 7.05 µM
TGI (UACC-257 melanoma): 16.9 µM
GI50 (MALME-3M melanoma): 5.45 µM
TGI (MALME-3M melanoma): 10.6 µM
GI50 (BT-549 breast): 6.24 µM
TGI (BT-549 breast): 20.3 µM
GI50 (UACC-62 melanoma): 7.57 µM
TGI (UACC-62 melanoma): 24.2 µM
GI50 (SF-268 CNS): 7.08 µM
TGI (SF-268 CNS): 30 µM
GI50 (PC-3 prostate): 6.23 µM
TGI (PC-3 prostate): > 37 µM
GI50 (A498 renal): 7.37 µM
TGI (A498 renal): 31.4 µM
GI50 (CCRF-CEM leukemia): 8.53 µM
TGI (CCRF-CEM leukemia): 31.5 µM
GI50 (K-562 leukemia): 2960 nM
TGI (K-562 leukemia): > 37 µM
GI50 (NCI-H522 lung): 5.07 µM
TGI (NCI-H522 lung): 12 µM
GI50 (RPMI-8226 leukemia): 5.96 µM
TGI (RPMI-8226 leukemia): 24.6 µM
GI50 (SF-295 CNS): 7.16 µM
TGI (SF-295 CNS): 21.7 µM
GI50 (SNB-75 CNS): 4.18 µM
TGI (SNB-75 CNS): 22.7 µM
GI50 (MCF7 breast): 7.17 µM
TGI (MCF7 breast): 18 µM
GI50 (HT29 colon): 7.17 µM
TGI (HT29 colon): 18.2 µM
GI50 (RXF 393 renal): 6.01 µM
TGI (RXF 393 renal): 28.6 µM
GI50 (EKVX NSCLC): 9.63 µM
TGI (EKVX NSCLC): > 37 µM
GI50 (SK-MEL-28 melanoma): 6.57 µM
TGI (SK-MEL-28 melanoma): 15.5 µM
GI50 (NCI-H23 lung): 10.1 µM
TGI (NCI-H23 lung): > 37 µM
GI50 (NCI/ADR-RES ovarian): 7.29 µM
TGI (NCI/ADR-RES ovarian): 25.4 µM
GI50 (LOX IMVI melanoma): 5.86 µM
TGI (LOX IMVI melanoma): 12 µM
GI50 (SK-MEL-5 melanoma): 5.64 µM
TGI (SK-MEL-5 melanoma): 10.8 µM
GI50 (M14 melanoma): 6.71 µM
TGI (M14 melanoma): 19 µM
